Laboratory results reported in ChEMBL document CHEMBL3351420, “Liver X receptor (LXR) partial agonists: biaryl pyrazoles and imidazoles displaying a preference for LXRβ” (Bioorg Med Chem Lett, 2015).
Active and inactive are the calls of the source. The calls are words filed in the database; no cut-off is given here.

Legend:
[1] = Plasma concentration in mouse at 30 mg/kg, po measured at 24 hrs post dose; assay type: ADME, organism-based; parameters: dose 30 mg/kg, route oral
[2] = Drug uptake in mouse liver at 30 mg/kg, po measured at 24 hrs post dose; assay type: ADME, organism-based; parameters: dose 30 mg/kg, route oral; conditions: read-out: Drug uptake
[3] = target: Liver X receptor (Homo sapiens) (UniProt Q13133+P55055); test: Transactivation of LXR in human whole blood assessed as induction of ABCA1 after 4 hrs by SYBR-Green quantitative PCR analysis relative to 1-(2,4-difluorobenzyl)-2-oxo-6-(4-phenoxyphenyl)-4-(trifluoromethyl)-1,2-dihydropyridine-3-carbonitrile
Liver X receptor [4] = target: T1, Liver X receptor (Homo sapiens, UniProt Q13133+P55055); test: Transactivation of LXR in human whole blood assessed as induction of ABCA1 after 4 hrs by SYBR-Green quantitative PCR analysis
T1 sequence (Q13133 whole entry): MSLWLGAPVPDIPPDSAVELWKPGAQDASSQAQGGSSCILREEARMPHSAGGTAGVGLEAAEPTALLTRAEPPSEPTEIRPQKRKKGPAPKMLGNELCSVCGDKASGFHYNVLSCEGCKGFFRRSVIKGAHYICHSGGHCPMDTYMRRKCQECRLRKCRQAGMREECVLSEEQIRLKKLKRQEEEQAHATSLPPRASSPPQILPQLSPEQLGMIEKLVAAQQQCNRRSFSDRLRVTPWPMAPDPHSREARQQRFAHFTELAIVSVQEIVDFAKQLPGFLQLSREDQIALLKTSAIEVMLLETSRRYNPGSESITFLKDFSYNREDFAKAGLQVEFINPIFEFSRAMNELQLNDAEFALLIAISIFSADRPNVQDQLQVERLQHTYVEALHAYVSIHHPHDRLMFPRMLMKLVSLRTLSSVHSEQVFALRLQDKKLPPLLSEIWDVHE
T1 sequence (P55055 whole entry): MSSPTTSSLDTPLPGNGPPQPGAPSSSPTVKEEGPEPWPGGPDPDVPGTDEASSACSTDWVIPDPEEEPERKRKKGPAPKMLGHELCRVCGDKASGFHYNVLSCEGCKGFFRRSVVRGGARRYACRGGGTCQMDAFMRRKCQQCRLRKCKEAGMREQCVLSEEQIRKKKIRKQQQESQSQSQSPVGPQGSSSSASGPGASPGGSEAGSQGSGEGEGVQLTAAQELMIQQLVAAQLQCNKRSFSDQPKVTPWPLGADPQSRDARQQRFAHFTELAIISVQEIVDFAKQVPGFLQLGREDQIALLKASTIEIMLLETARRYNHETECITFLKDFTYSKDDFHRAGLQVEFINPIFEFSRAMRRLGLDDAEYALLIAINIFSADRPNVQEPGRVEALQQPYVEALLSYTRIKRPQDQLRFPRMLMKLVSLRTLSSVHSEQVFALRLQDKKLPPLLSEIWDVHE

[5] = target: Retinoic acid receptor RXR-alpha/oxysterols receptor LXR-beta (Homo sapiens, UniProt P55055); test: Binding affinity to LXRbeta-RXRalpha heterodimer (unknown origin) expressed in insect cells by scintillation proximity assay
[6] = target: T2, Oxysterols receptor LXR-alpha (Homo sapiens, UniProt Q13133); test: Transactivation of LXRalpha (unknown origin) expressed in CV1 cells by luciferase reporter gene assay; assay type: cell-based, CV-1
T2 sequence (Q13133 whole entry): T1 sequence (Q13133 whole entry)

[7] = target: Retinoic acid receptor RXR-alpha/oxysterols receptor LXR-alpha (Homo sapiens, UniProt Q13133); test: Binding affinity to LXRalpha-RXRalpha heterodimer (unknown origin) expressed in insect cells by scintillation proximity assay
[8] = Plasma concentration in mouse at 30 mg/kg, po measured at 4 hrs post dose; assay type: ADME, organism-based; parameters: dose 30 mg/kg, route oral
Liver X receptor [9] = target: T1, Liver X receptor; test: Transactivation of LXR (unknown origin) expressed in human HeLa cells by ABCA1 LXREx3 reporter assay; assay type: cell-based
[10] = target: T3, Oxysterols receptor LXR-beta (Homo sapiens, UniProt P55055); test: Transactivation of LXRbeta (unknown origin) expressed in CV1 cells by luciferase reporter gene assay; assay type: cell-based, CV-1
T3 sequence (P55055 whole entry): T1 sequence (P55055 whole entry)

Mus musculus [11] = test: Elevation of hepatic triglyceride in C57BL/6 mouse at 30 mg/kg for 7 days measured 24 hrs post last dose relative to control; assay type: ADME, organism-based; parameters: dose 30 mg/kg; conditions: in vivo
Mus musculus [12] = test: Induction of SREBP1c mRNA in C57BL/6 mouse liver at 30 mg/kg for 7 days measured 24 hrs post last dose relative to control; assay type: organism-based; parameters: dose 30 mg/kg; conditions: C57BL/6, 24 h, read-out: FC
Mus musculus [13] = test: Induction of ABCA1 mRNA induction in C57BL/6 mouse blood cells at 3 to 30 mg/kg for 7 days measured 5 hrs post last dose relative to control; assay type: functional, organism-based
Mus musculus [14] = test: Induction of SREBP1c mRNA in C57BL/6 mouse liver at 10 mg/kg for 7 days measured 24 hrs post last dose relative to control; assay type: organism-based; parameters: dose 10 mg/kg; conditions: C57BL/6, 24 h, read-out: FC
[15] = Plasma concentration in C57BL/6 mouse at 3 mg/kg, po measured at 5 hrs post dose; assay type: ADME, organism-based; parameters: dose 3 mg/kg, route oral
Mus musculus [16] = test: Elevation of plasma triglyceride in C57BL/6 mouse at 3 to 10 mg/kg for 7 days measured 24 hrs post last dose relative to control; assay type: ADME, organism-based; parameters: dose 3-10 mg/kg; conditions: in vivo
Mus musculus [17] = test: Induction of ABCG1 mRNA induction in C57BL/6 mouse blood cells at 3 to 30 mg/kg for 7 days measured 5 hrs post last dose relative to control; assay type: functional, organism-based
[18] = Plasma concentration in C57BL/6 mouse at 10 mg/kg, po measured at 5 hrs post dose; assay type: ADME, organism-based; parameters: dose 10 mg/kg, route oral
Mus musculus [19] = test: Elevation of plasma triglyceride in C57BL/6 mouse at 30 mg/kg for 7 days measured 24 hrs post last dose relative to control; assay type: ADME, organism-based; parameters: dose 30 mg/kg; conditions: in vivo
[20] = Plasma concentration in C57BL/6 mouse at 30 mg/kg, po measured at 5 hrs post dose; assay type: ADME, organism-based; parameters: dose 30 mg/kg, route oral
Mus musculus [21] = test: Elevation of hepatic triglyceride in C57BL/6 mouse at 3 to 30 mg/kg for 7 days measured 24 hrs post last dose relative to control; assay type: ADME, organism-based; parameters: dose 3-30 mg/kg; conditions: in vivo

Retinoic acid receptor RXR-alpha/oxysterols receptor LXR-beta, sequence (P19793 whole entry, one chain of several): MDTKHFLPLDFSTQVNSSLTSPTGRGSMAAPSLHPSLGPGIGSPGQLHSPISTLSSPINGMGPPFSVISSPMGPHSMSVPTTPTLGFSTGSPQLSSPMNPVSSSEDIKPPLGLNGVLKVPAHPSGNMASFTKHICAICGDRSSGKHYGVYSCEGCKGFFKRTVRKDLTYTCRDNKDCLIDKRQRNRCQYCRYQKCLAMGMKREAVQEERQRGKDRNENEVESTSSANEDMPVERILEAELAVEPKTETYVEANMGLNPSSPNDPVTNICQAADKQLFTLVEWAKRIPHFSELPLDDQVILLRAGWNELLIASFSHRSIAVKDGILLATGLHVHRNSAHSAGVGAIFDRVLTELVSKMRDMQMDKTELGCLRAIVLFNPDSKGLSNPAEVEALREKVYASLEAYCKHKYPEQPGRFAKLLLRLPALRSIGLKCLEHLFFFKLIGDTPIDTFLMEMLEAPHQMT
Retinoic acid receptor RXR-alpha/oxysterols receptor LXR-alpha, sequence (P19793 whole entry, one chain of several): as above

SMILES | concentration at 24 h [1] | concentration at 24 h [2] | Efficacy [3] | EC50 (Liver X receptor [4]) | Ki [5] | EC50 [6] | Ki [7] | concentration at 4 h [8] | EC50 (Liver X receptor [9]) | EC50 [10] | also measured
CC(C)(O)c1cn(-c2ccc(-c3cccc(S(C)(=O)=O)c3)cc2)c(Cc2ccccc2C(F)(F)F)n1 | 20 nM | 200 nM | 30% | 3100 nM | 7 nM | 200 nM | 66 nM | 6000 nM | 27 nM | 140 nM | –
CS(=O)(=O)c1cccc(-c2ccc(-n3cc(C(F)(F)F)nc3-c3ccccc3Cl)cc2)c1 | 2300 nM | 32000 nM | – | – | 11 nM | 52 nM | 61 nM | 1200 nM | 5 nM | 61 nM | –
N#Cc1c(C(F)(F)F)cc(-c2ccc(Oc3ccccc3)cc2)n(Cc2ccc(F)cc2F)c1=O | – | – | – | – | 9 nM | 20 nM | 26 nM | – | 7 nM | 20 nM | –
CC(C)(O)c1cc(-c2ccc(-c3cccc(S(C)(=O)=O)c3)s2)n(-c2ccccc2Cl)n1 | – | – | – | – | 83 nM | 540 nM | 1500 nM | – | 800 nM | 620 nM | –
CC(C)(O)c1cn(-c2ccc(-c3cccc(S(C)(=O)=O)c3)cc2)c(-c2ccccc2Cl)n1 | 2000 nM | 13200 nM | 31% | 8300 nM | 59 nM | > 10000 nM | 1600 nM | 14000 nM | 140 nM | 600 nM | –
CC(C)(O)c1cn(-c2ccc(-c3cccc(S(C)(=O)=O)c3)cc2)c(C(C)(C)c2ccccc2Cl)n1 [BMS-779788] | 40 nM | < 50 nM | 55% | 1200 nM | 14 nM | 230 nM | 68 nM | 5400 nM | 33 nM | 250 nM | Activity (Mus musculus [13]): Active; fold induction at 10 mg/kg (Mus musculus [14]): 2.7; concentration at 5 h [15]: 50 nM; Activity (Mus musculus [11]): Non-toxic; Activity (Mus musculus [16]): Non-toxic; Activity (Mus musculus [17]): Active; concentration at 5 h [18]: 200 nM; Activity (Mus musculus [19]): 74%; fold induction at 30 mg/kg (Mus musculus [12]): 3.5; concentration at 5 h [20]: 2000 nM; Activity (Mus musculus [21]): Non-toxic
CS(=O)(=O)c1cccc(-c2ccc(-c3cc(C(F)(F)F)nn3-c3ccccc3Cl)cc2)c1 | 400 nM | 7800 nM | 49% | 480 nM | 13 nM | 220 nM | 180 nM | 600 nM | 13 nM | 49 nM | –
CC(C)(O)c1cn(-c2ccc(-c3cccc(S(C)(=O)=O)c3)cc2)c(Cc2ccccc2Cl)n1 | 400 nM | 1500 nM | 62% | 3200 nM | 1 nM | 85 nM | 25 nM | 1300 nM | 12 nM | 66 nM | –
CS(=O)(=O)c1cccc(-c2cccc(-c3cc(C(F)(F)F)nn3-c3ccccc3Cl)c2)c1 | 300 nM | 1000 nM | – | – | 31 nM | 320 nM | 300 nM | 6600 nM | 38 nM | 230 nM | –
COC(=O)c1cc(-c2ccc(-c3cccc(S(C)(=O)=O)c3)s2)n(-c2ccccc2Cl)n1 | – | – | – | – | 10 nM | 65 nM | 150 nM | – | 310 nM | 64 nM | –
CS(=O)(=O)c1cccc(-c2ccc(-c3cc(C(F)(F)F)nn3Cc3ccc(F)cc3F)s2)c1 | – | – | – | – | 7 nM | 18 nM | 20 nM | – | – | 14 nM | –

Further molecules by falling Ki [5], results first:

concentration at 24 h [1] | concentration at 24 h [2] | Efficacy [3] | EC50 (Liver X receptor [4]) | Ki [5] | EC50 [6] | Ki [7] | concentration at 4 h [8] | EC50 (Liver X receptor [9]) | EC50 [10] | SMILES | also measured
600 nM | 4400 nM | 38% | 7000 nM | 54 nM | > 10000 nM | 2500 nM | 18500 nM | 140 nM | 670 nM | CC(C)(O)c1cn(-c2ccc(-c3cccc(S(C)(=O)=O)c3)cc2)c(-c2c(Cl)cccc2Cl)n1 | –
4100 nM | – | – | – | 16 nM | 120 nM | 240 nM | 6900 nM | 8 nM | 68 nM | CS(=O)(=O)c1cccc(-c2ccc(-c3cc(C(F)(F)F)nn3-c3ccccc3C(F)(F)F)s2)c1 | –
– | – | – | – | 12 nM | 140 nM | 68 nM | – | 9 nM | 110 nM | CS(=O)(=O)c1cccc(-c2ccc(-c3cc(C(F)(F)F)nn3-c3ccccc3Cl)s2)c1 | –
– | – | – | – | 11 nM | 4 nM | 11 nM | – | – | 2 nM | CS(=O)(=O)c1cccc(-c2ccc(-c3cc(C(F)(F)F)c(C#N)c(=O)n3Cc3ccc(F)cc3F)s2)c1 | –
– | – | – | – | 9 nM | 570 nM | 36 nM | – | 40 nM | 320 nM | Cc1cc(CC(=O)O)ccc1-c1ccc(-c2cc(C(F)(F)F)c(C#N)c(=O)n2Cc2ccc(F)cc2F)s1 | fold change (FC) (Mus musculus [11]): 4.8; fold induction at 30 mg/kg (Mus musculus [12]): 7.7
